Experimental data from PMC8555866 (Nature chemical biology, 2021).
Where a name gives a salt, the structure may show the parent alone.

Legend:
[1] = molecular target: T1, Keap1 (tag-free) (Homo sapiens, UniProt Q14145); assay: Assay-1: inhibitor dose response, full length Keap1; assay type: binding; settings: 5 nM Keap1, 3.5 nM each KL9 tracer, 4 h
[2] = molecular target: T1, Keap1 (tag-free); assay: Assay-2: inhibitor dose response, full length Keap1; assay type: binding; settings: for activity in Assay-2 (in words): 5 nM Cora-1-KL9, 150 nM CDDO-FITC, 5 nM Keap1
[3] = molecular target: wildtype Keap1 (tag-free) (Homo sapiens, UniProt Q14145); assay: Keap1 tracer saturation binding with wildtype Keap1; settings: fixed Cora-1-KL9 (5 nM) and wildtype Keap1, one-site binding model
Sequence of wildtype Keap1 (tag-free) (Q14145 whole entry): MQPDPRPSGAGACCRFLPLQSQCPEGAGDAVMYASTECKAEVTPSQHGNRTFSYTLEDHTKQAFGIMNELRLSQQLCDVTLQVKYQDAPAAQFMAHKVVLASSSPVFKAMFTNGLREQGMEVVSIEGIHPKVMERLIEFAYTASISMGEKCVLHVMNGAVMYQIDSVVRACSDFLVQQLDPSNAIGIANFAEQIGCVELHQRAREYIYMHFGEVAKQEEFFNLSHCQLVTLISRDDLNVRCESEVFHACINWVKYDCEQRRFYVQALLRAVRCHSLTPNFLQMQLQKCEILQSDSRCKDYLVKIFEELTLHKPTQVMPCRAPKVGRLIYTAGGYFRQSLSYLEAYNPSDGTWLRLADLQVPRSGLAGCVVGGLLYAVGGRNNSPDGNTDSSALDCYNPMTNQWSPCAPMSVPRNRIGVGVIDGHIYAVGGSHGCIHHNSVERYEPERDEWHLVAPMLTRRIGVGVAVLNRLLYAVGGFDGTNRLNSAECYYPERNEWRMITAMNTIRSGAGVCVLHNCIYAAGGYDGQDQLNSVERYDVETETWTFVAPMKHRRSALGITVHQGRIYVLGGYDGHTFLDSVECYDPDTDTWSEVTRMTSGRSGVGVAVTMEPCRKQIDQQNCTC

[4] = molecular target: HDAC1-HT in HEK293T cells (Homo sapiens, UniProt Q13547); assay type: cell-based; settings: Cora-2-Halo labeled HEK293T cells expressing HDAC1-HT, 4 h at 37°C
Sequence of HDAC1-HT in HEK293T cells (Q13547 whole entry): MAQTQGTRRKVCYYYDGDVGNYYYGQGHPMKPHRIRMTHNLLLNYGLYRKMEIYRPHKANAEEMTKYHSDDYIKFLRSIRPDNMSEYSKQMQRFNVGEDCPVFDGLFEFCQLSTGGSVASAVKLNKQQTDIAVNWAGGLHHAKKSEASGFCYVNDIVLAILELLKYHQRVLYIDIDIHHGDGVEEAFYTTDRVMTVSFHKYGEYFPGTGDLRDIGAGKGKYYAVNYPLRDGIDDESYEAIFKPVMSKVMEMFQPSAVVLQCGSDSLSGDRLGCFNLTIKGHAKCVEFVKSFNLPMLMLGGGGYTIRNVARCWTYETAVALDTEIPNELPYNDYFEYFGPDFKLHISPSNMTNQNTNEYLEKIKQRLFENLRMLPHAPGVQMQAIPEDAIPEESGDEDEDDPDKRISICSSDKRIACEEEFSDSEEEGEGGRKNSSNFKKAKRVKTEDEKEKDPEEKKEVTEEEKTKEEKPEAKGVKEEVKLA

T1 sequence (Q14145 whole entry): as the sequence (Q14145 whole entry) above

Structure (SMILES)	affinity in Assay-1 (no appreciable affinity below) [1] [µM]	activity in Assay-1 (in words) [1]	also measured
Cc1sc2c(c1C)C(c1ccc(Cl)cc1)=NC(CC(=O)NCCCOCCOCCOCCCNC(=O)[C@]13CCC(C)(C)C[C@H]1[C@H]1C(=O)C=C4[C@@]5(C)C=C(C#N)C(=O)C(C)(C)[C@@H]5CC[C@@]4(C)[C@]1(C)CC3)c1nnc(C)n1-2 (some centres unmarked) [CDDO-JQ1]	> 100	–	fold less potent than CDDO ([2]; Assay-2): > 500 fold
CC1=C(O)C(=O)C=C2C1=CC=C1[C@@]2(C)CC[C@@]2(C)[C@@H]3C[C@](C)(C(=O)O)CC[C@]3(C)CC[C@]12C [celastrol]	–	micromolar activity	–
CC1(C)CC[C@]2(C(=O)NCCCOCCOCCOCCCNC(=S)Nc3ccc(-c4c5ccc(=O)cc-5oc5cc(O)ccc45)c(C(=O)O)c3)CC[C@]3(C)[C@H](C(=O)C=C4[C@@]5(C)C=C(C#N)C(=O)C(C)(C)[C@@H]5CC[C@]43C)[C@@H]2C1 [CDDO-FITC]	–	–	Kd [3]: 164 ± 37.1 nM
O=C(CCCCCCC(=O)Nc1ccc(CNC(=O)c2ccc(C(=O)O)c(C3=c4cc5c6c(c4Oc4c3cc3c7c4CCCN7CCCC3)CCC[N+]=6CCCC5)c2)cc1)NO [SAHA-NCT]	–	–	TR-FRET signal in live cells / cell permeability (in words) [4]: specific and ligand concentration-dependent TR-FRET signal
COC(=O)[C@]12CCC(C)(C)C[C@H]1[C@H]1C(=O)C=C3[C@@]4(C)C=C(C#N)C(=O)C(C)(C)[C@@H]4CC[C@@]3(C)[C@]1(C)CC2 [CDDO-Me, bardoxolone methyl]	> 100	–	activity in Assay-2 (in words) [2]: most potent competitors of CDDO-FITC

Now from value to molecule, other results behind:

affinity in Assay-1 (no appreciable affinity below) [1] [µM]	activity in Assay-1 (in words) [1]	Structure (SMILES)	also measured
–	micromolar activity	COC1=CC(=O)C(O)=C/C1=C\C=C\c1ccccc1 [OBT, obtusaquinone]	–
> 100	–	COC(=O)/C=C/C(=O)OC [dimethyl fumarate]	–
–	micromolar activity	CC1(C)CC[C@]2(C(=O)O)CC[C@]3(C)[C@H](C(=O)C=C4[C@@]5(C)C=C(C#N)C(=O)C(C)(C)[C@@H]5CC[C@]43C)[C@@H]2C1 [CDDO]	activity in Assay-2 (in words) [2]: most potent competitors of CDDO-FITC
